Measurements taken from US20040067222A1, “Regulation of glucocorticoid concentration” (priority 2001, published 2004).

How the values were obtained:
[1] = biological target: T1, 11β-HSD1 (Mus musculus, UniProt P50172); assay: Conversion of 3H-11-dehydrocorticosterone to corticosterone in macrophage cultures (FIG. 2b, 2c); assay type: cell-based
T1 construct: endogenous in cells; host or cells: mouse macrophages (probably thioglycollate-elicited peritoneal macrophages from C57Bl/6 mice)
Excerpt: (§1) Samples were taken at different times and ^3H-cort and ^3H-11-DHC were separated from media samples by thin layer chromatography and analysed by phosphorimaging.

[2] = tested on: murine peripheral macrophages; assay: Phagocytosis by murine peripheral macrophages (FIG. 3); assay type: cell-based; conditions: for phagocytosis performance of macrophages: over 24 hours
Procedure: (§2) Fresh PMN were isolated from peripheral blood and aged to apoptosis in Teflon wells over 24 hrs in Iscoves/10% autologous serum. Mφ were treated with glucocorticoids as described in the figures. Mφ and aPMN were washed with 1×PBS and interacted in serum free Iscoves for 30 mins at 37° C. The cell layer was gently washed to remove […] cells, fixed in 1×Formalin and stained with PMN selective myeloperoxidase.

[3] = tested on: murine BMD Mφ; assay: Phagocytosis of apoptotic PMN by BMD Mφ from control and 11β-HSD-/- mice (FIG. 4); assay type: cell-based; conditions: for enhanced phagocytic effect in 11βHSD-1-/- Mφ: 11βHSD-1-/- macrophages versus control; for phagocytosis of apoptotic PMN by BMD Mφ: 48 hrs treatment, n=4/group
Procedure: Bone Marrow Derived Macrophages (BMD Mφ)—bone marrow was extracted from femurs (C57BI/6 mice) and cultured @4×10^5 cells/ml in DMEM/10% FCS/10% L929 cell line supernatant for 8 days.
as §2
Transgenic 11β-HSD^−/− mice have been described previously (Kotelevstev et al., PNAS (USA) 94:14924-14929). Macrophages are isolated from control and 11β-HSD^−/− mice and assayed in a PMN phagocytosis assay as described above.

[4] = tested on: blood glucose levels; conditions: oral administration, two mouse models of diabetes; cited from earlier work
[5] = tested on: 11β-HSD-1; assay: 11β-reductase activity in human monocytes differentiating into macrophages, incubated with IL-4 (FIG. 8); assay type: cell-based; conditions: range of doses of IL-4, human monocytes at initiation of differentiation
Excerpt: Human Monocytes—monocytes isolated from peripheral blood by dextran sedimentation and percoll gradient methods. Monocytes were differentiated to Mφ @4×10^6 cells/ml over 4 days in Iscoves/10% autologous serum.
as §1
The manner in which differentiating macrophages acquire 11β-HSD-1 activity can be influenced by cytokines. In the experiment shown in FIG. 8, human monocytes at the initiation of differentiation into macrophages were incubated with a range of doses of IL-4. 11β-reductase activity was measured by incubation with tritiated 11-DHC.

T1 sequence (P50172 whole entry): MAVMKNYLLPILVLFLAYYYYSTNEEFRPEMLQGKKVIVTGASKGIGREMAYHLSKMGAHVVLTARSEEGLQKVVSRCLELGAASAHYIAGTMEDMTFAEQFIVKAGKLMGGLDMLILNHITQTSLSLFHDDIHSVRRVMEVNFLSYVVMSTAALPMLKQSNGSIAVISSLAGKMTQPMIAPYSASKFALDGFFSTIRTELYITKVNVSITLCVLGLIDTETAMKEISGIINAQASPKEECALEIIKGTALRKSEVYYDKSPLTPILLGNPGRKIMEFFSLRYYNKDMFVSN

Compound | phagocytosis performance of macrophages [2] | enhanced phagocytic effect in 11βHSD-1-/- Mφ [3] | phagocytosis of apoptotic PMN by BMD Mφ [3] | also measured
C[C@]12CC(=O)[C@H]3[C@@H](CCC4=CC(=O)CC[C@@]43C)[C@@H]1CC[C@@H]2C(=O)CO [11-dehydrocorticosterone] | two-fold | abrogated | enhancement of phagocytosis | conversion of inactive 11-dehydrocorticosterone (A) to active corticosterone (B) ([1]; mouse macrophages, over a 24 hour period): clearly shows conversion of (A) to (B)
C=CC(C)(C)c1[nH]c2ccccc2c1C1=C(O)C(=O)C(c2c[nH]c3c(CC=C(C)C)cccc23)=C(O)C1=O [L-783,281] |  |  |  | blood glucose levels [4]: significant lowering
CC1(C)[C@@H](OC(=O)CCC(=O)O)CC[C@]2(C)[C@H]3C(=O)C=C4[C@@H]5C[C@@](C)(C(=O)O)CC[C@]5(C)CC[C@@]4(C)[C@]3(C)CC[C@@H]12 [carbenoxolone] |  |  |  | effect on conversion of (A) to (B) by 11β-HSD1 ([1]; high concentrations of carbenoxolone): can be blocked; effect of inactive 11-dehydrocorticosterone on phagocytosis in the presence of the inhibitor ([2]; macrophages incubated with 11-dehydrocorticosterone plus carbenoxolone): completely abolishes
C[C@]12C[C@H](O)[C@H]3[C@@H](CCC4=CC(=O)CC[C@@]43C)[C@@H]1CC[C@@H]2C(=O)CO [corticosterone] | two-fold | no effect | enhancement of phagocytosis | 
IL-4: cytokine capable of inducing 11β-HSD 1 expression |  |  |  | conversion of inert 11-DHC to active corticosterone (11β-reductase activity) [5]: dose-relatedly increased
